Assay results published in US20090228996A1, “Means and Methods for influencing Interactions Between Dc-Sign and Dc-Sign Ligands” (priority 2006, published 2009).

How the values were obtained:
DC-SIGN on iDCs = target: T1, DC-SIGN on iDCs (Homo sapiens, UniProt Q9NNX6); test: gp120 bead adhesion assay, immature DCs; type: cell-based; conditions: for binding of gp120 beads to iDC: cells pre-incubated 30 min, human milk 1/20, vs control
T1 construct: endogenous in cells
T1 sequence (Q9NNX6 1-404): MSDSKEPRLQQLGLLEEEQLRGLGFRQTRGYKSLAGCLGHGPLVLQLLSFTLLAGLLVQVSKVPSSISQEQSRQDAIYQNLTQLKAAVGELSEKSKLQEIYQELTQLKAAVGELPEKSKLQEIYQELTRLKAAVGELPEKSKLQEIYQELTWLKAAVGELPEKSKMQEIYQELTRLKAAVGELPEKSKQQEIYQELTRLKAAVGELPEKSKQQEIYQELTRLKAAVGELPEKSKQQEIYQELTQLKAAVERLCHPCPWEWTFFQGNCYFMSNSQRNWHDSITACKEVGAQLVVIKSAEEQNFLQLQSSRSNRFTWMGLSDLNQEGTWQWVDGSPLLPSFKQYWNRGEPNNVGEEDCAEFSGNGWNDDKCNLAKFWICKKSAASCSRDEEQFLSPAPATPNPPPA
Experimental: (§1) gp120 bead adhesion assay. Beads were prepared as previously described (Geijtenbeek et al, 2000 a), in short, streptavidin was covalently coupled to Carboxylate-modified TransFluoSpheres (488/645 nm, 1.0 μm; molecular probes). The steptavidin-beads were incubated with biotinylated F(ab′)2 fragment goat-anti-human IgG (6 μg/ml; Jackson Immunoresearch) and subsequently incubated overnight with gp120-Fc chimera. Fifty thousand cells, Raji-DC-SIGN cells, immature DCs or Raji-L-SIGN cells, were pre-incubated with human milk or milk compounds, AZN-D1 (Geijtenbeek et al, 2000 a), AZN-D2 (Halary et al, 2002), EGTA or mannan for 30 minutes at RT. The ligand-coated beads (20 beads/cell) were added to the pre-incubated cells and incubated for 30 minutes at 37° C. after which the cells were washed with TSM containing 0.5% BSA. After washing, the cells were resuspended in 100 μl TSM-BSA buffer and the adhesion was measured by flow cytometry (BD Biosciences).
(§2) gp120 bead adhesion assay. Beads were prepared as previously described (Geijtenbeek et al, 2000 a), in short, streptavidin was covalently coupled to Carboxylate-modified TransFluoSpheres (488/645 nm, 1.0 μm; molecular probes). The steptavidin-beads were incubated with biotinylated F(ab′)2 fragment goat-anti-human IgG (6 μg/ml; Jackson Immunoresearch) and subsequently incubated overnight with the gp120-Fc chimera. Fifty thousand cells, Raji-DC-SIGN cells or iDCs were pre-incubated with human milk, AZN-D1 (Geijtenbeek et al, 2000 a), AZN-D2 (Halary et al, 2002), EGTA or mannan for 30 minutes at RT. The ligand-coated beads (20 beads/cell) were added to the pre-incubated cells and incubated for 30 minutes at 37° C. after which the cells were washed with TSM (20 mM Tris, 150 mM NaCl, 1 mM CaCl2, 2 mM MgCl2) containing 0.5% BSA. After washing, the cells were resuspended in 100 μl TSM-BSA buffer and the adhesion was measured by flow cytometry (BD Biosciences).

[1] = target: T2, DC-SIGN on Raji-DC-SIGN cells (Homo sapiens, UniProt Q9NNX6); test: gp120 bead adhesion assay, Raji-DC-SIGN cells; type: cell-based; conditions: for binding of gp120 beads to Raji-DC-SIGN: cells pre-incubated 30 min, human milk 1/20, vs control
T2 construct: expressed in transfected cells; host or cells: Raji cells (Raji-DC-SIGN)
T2 sequence (Q9NNX6 1-404): T1 sequence (Q9NNX6 1-404)
Experimental: as §1, §2

DC-SIGN-Fc = target: T3, DC-SIGN-Fc (Homo sapiens, UniProt Q9NNX6); test: DC-SIGN-Fc binding ELISA
T3 construct: the extracellular portion of DC-SIGN (amino acids 64 to 404)
T3 sequence (Q9NNX6 64-404): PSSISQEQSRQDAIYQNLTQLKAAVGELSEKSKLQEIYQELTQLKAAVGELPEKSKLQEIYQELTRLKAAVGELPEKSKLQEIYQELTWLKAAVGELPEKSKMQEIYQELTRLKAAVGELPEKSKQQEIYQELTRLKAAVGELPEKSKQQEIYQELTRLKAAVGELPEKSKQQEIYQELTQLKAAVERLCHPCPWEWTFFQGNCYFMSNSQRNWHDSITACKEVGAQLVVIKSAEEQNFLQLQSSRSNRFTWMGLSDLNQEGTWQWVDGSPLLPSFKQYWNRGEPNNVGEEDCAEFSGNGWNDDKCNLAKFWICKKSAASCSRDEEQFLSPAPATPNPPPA
Experimental: DC-SIGN-Fc binding ELISA. The DC-SIGN-Fc chimera contained the extracellular portion of DC-SIGN (amino acids 64 to 404) fused at the C-terminus to a human immunoglobulin (Ig) G1 Fc fragment and has been previously described (Geijtenbeek et al, 2002). Human milk or human milk compounds were diluted in 0.2M NaHCO3, coated on ELISA plates (maxisorb plate; Nunc) and incubated overnight at 4° C. or 2 hours at 37° C. This was followed by blocking with TSM containing 1% BSA for 30 minutes at 37° C. before addition of soluble DC-SIGN-Fc (5 μg/ml) for 2 hours at RT, the binding was determined by incubation of a peroxidase labeled anti-IgG1 antibody for 30 minutes at RT. DC-SIGN-Fc binding specificity was determined by pre-incubation of the DC-SIGN-FC with either 50 μg/ml DC-SIGN specific mouse antibody AZN-D1 (Geijtenbeek et al, 2000 a) or 10 mM EGTA. Single-cycle-replication transmission assay. The assay was performed as previously described (Groot et al, 2005). In short mDCs and iDCs were incubated in a 96-well-plate (35−50×10^3 DC/well) with human milk for 30 minutes at 37° C. before addition of the virus (5 ng p24/well), which was incubated for 2 hours at 37° C. The DCs were washed twice with PBS before addition of 50×10^3 LuSIV cells. After 24 hours, LuSIV cells were harvested and resuspended in 50 μl lysis buffer (25 mM Tris-Cl 7.8, 2 mM DTT, 2 mM CDTA, 10% glycerol, 1% Triton X100). The cells were then incubated for 45 minutes at room temperature while shaking, followed by 10 minutes centrifugation at 3200×g. […]
DC-SIGN-Fc binding ELISA. […] This was followed by blocking with TSM containing 1% BSA for 30 minutes at 37° C. before addition of soluble DC-SIGN-Fc (5 μg/ml) for 2 hours at RT, the binding was determined by incubation of a peroxidase labeled anti-IgG1 antibody for 30 minutes at RT. DC-SIGN-Fc binding specificity was determined by pre-incubation of the DC-SIGN-Fc with either 50 μg/ml DC-SIGN specific mouse antibody AZN-D1 (Geijtenbeek et al, 2000 a) or 10 mM EGTA.

[2] = tested on: DC-SIGN mediated transfer of HIV-1 by Raji-DC-SIGN cells to CD4+ T-lymphocytes; test: DC-SIGN mediated HIV-1 transfer assay (Raji-DC-SIGN transfer culture assay); type: cell-based; conditions: Le^x containing compounds, all at 10 μg/ml
Experimental: DC-SIGN mediated HIV-1 transfer assay. The Raji and Raji-DC-SIGN cells were plated at a concentration of 2×10^4 cells/well in a 96 well format. Dilutions of human milk or human milk compounds were made in PBS containing 10% FCS and spiked with 3.7log TCID50/ml of the appropriate virus before addition to the Raji-DC-SIGN cells. As controls PBS containing 10% FCS was spiked with the same TCID50/ml of the corresponding virus before addition to Raji or Raji-DC-SIGN cells. After incubation the culture was washed with PBS before addition of CD4^+ enriched T-lymphocytes at a concentration of 1×10^5 cells/well with p24 determined on day 7. DC-SIGN specific antibody binding after exposure to human milk. […] The cells were washed and resuspended in 100 μl TSM containing 0.5% bovine serum albumin, (BSA Fraction V, Fatty Acid-Free) (Calbiochem) and the adhesion was measured by flow cytometry (BD Biosciences).
DC-SIGN mediated HIV-1 transfer assay. […] After a two hour incubation the culture was washed with PBS before addition of CD4^+ enriched T-lymphocytes at a concentration of 1×10^5 cells/well with p24 values determined on day 7.

DC-SIGN [3] = target: T4, DC-SIGN (Homo sapiens, UniProt Q9NNX6); test: gp120 bead adhesion assay, cells not given; type: cell-based; conditions: Le^x containing compounds; data not shown
T4 sequence (Q9NNX6 1-404): T1 sequence (Q9NNX6 1-404)
Experimental: as §1

DC-SIGN [4] = target: T4, DC-SIGN; conditions: literature; cited from earlier work
[5] = Example 2, protein fraction from milk S3 (C18 column) and DC-SIGN controls
[6] = major milk proteins at 1/20 dilution of physiological concentration in human milk

Molecule | gp120 binding to iDCs (DC-SIGN on iDCs; [5]) | binding of gp120 beads to iDC (DC-SIGN on iDCs) | binding of gp120 beads to Raji-DC-SIGN [1] | DC-SIGN mediated HIV-1 transfer [2] | interaction between DC-SIGN and gp120 (DC-SIGN [3]) | other results
O=C(O)CN(CCOCCOCCN(CC(=O)O)CC(=O)O)CC(=O)O [EGTA, reference compound] | demonstrated inhibition | block binding of gp120 beads to the DC-SIGN expressing cells to the same extent as human milk | block binding of gp120 beads to the DC-SIGN expressing cells to the same extent as human milk |  |  | DC-SIGN-Fc binding to human milk after pre-incubation of DC-SIGN-Fc (DC-SIGN-Fc; 50 μg/ml AZN-D1 or 10 mM EGTA, p<0.01): completely abrogated binding
Le^x-BSA: Lewis X-BSA, 14 atom spacer (Calbiochem) |  |  |  | able to inhibit DC-SIGN mediated HIV-1 transfer | none of the tested compounds were able to block the interaction | binding to DC-SIGN-Fc (DC-SIGN-Fc; Le^x-BSA or BSA control coated): demonstrates binding to DC-SIGN-Fc
mannan | demonstrated inhibition | block binding of gp120 beads to the DC-SIGN expressing cells to the same extent as human milk | block binding of gp120 beads to the DC-SIGN expressing cells to the same extent as human milk |  |  | 
human lysozyme: major human milk protein (Sigma) [reference compound] |  |  |  |  |  | gp120 binding to iDCs (DC-SIGN on iDCs; [6]): None of the tested human milk compounds could inhibit gp120 binding; gp120 binding to Raji-DC-SIGN [1, 6]: None of the tested human milk compounds could inhibit gp120 binding; DC-SIGN-Fc binding to coated milk compound (DC-SIGN-Fc; [6]): showed no binding
lacto-N-fucopentaose III [LNFP III, reference compound] |  |  |  | not able to prevent HIV-1 transfer | none of the tested compounds were able to block the interaction | previously shown DC-SIGN binding (DC-SIGN [4]): bind DC-SIGN
